Each molecule was assayed on RAW264.7 (assay: Anti-inflammatory activity in mouse RAW264.7 cells assessed as inhibition of LPS-induced NO production after 24 hrs by Griess reagent-based assay). Details: RAW264.7, 24 h.
Type: functional, cell-based
In the case of `C/C=C1/[C@H](O[C@@H]2O[C@H](CO)[C@@H](O)[C@H](O)[C@H]2O)OC=C(C(=O)OC)[C@H]1CC(=O)OC`, the IC50 is reported as > 80 µM. Work on `C/C=C1/[C@H](O[C@@H]2O[C@H](CO)[C@@H](O)[C@H](O)[C@H]2O)OC=C(C(=O)OC)[C@H]1CC(=O)OC[C@H]1O[C@@H](OCCc2ccc(O)c(O)c2)[C@H](O)[C@@H](O)[C@@H]1O` yielded an IC50 of 48.9 µM. Molecule `C/C=C1/[C@H](O[C@@H]2O[C@H](CO)[C@@H](O)[C@H](O)[C@H]2O)OC=C(C(=O)OC)[C@H]1CC(=O)OC[C@H]1O[C@@H](OCCc2ccccc2)[C@H](O)[C@@H](O)[C@@H]1O` has an IC50 of 65.7 µM. `C/C=C1/[C@H](O[C@@H]2O[C@H](CO)[C@@H](O)[C@H](O)[C@H]2O)OC=C(C(=O)OC)[C@H]1CC(=O)OC[C@H]1O[C@@H](OCc2ccccc2)[C@H](O)[C@@H](O)[C@@H]1O` gave an IC50 of 32.5 µM. `C/C=C1/[C@H](O[C@@H]2O[C@H](CO)[C@@H](OC(=O)/C=C/c3ccc(O)c(O)c3)[C@H](O)[C@H]2O)OC=C(C(=O)OC)[C@H]1CC(=O)O[C@@H]1[C@@H](O)[C@@H](O)[C@H](O[C@H]2[C@H](O)[C@@H](O)[C@H](OCCc3ccc(O)c(O)c3)O[C@@H]2CO)O[C@H]1C` was tested, and the IC50 was > 80 µM. `C/C=C1/[C@H](O[C@@H]2O[C@H](CO)[C@@H](O)[C@H](O)[C@H]2O)OC=C(C(=O)OC)[C@H]1CC(=O)O[C@H]1[C@H](OCCc2ccc(O)c(O)c2)O[C@H](CO)[C@@H](O)[C@@H]1O[C@@H]1O[C@@H](C)[C@H](O)[C@@H](O)[C@H]1O` gave an IC50 of 42.1 µM. Molecule `C/C=C1/[C@H](O[C@@H]2O[C@H](CO)[C@@H](O)[C@H](O)[C@H]2O)OC=C(C(=O)OC)[C@H]1CC(=O)OC[C@H]1O[C@@H](OCCc2ccc(O)cc2)[C@H](O)[C@@H](O)[C@@H]1O` has an IC50 of 59.8 µM. In the case of `C/C=C1/[C@H](O[C@@H]2O[C@H](CO)[C@@H](O)[C@H](O)[C@H]2O)OC=C(C(=O)OC)[C@H]1CC(=O)O[C@H]1[C@H](O[C@@H]2OC=C(C(=O)OC)[C@@H](CC(=O)OC[C@H]3O[C@@H](OCCc4ccc(O)cc4)[C@H](O)[C@@H](O)[C@@H]3O)/C2=C\C)O[C@H](CO)[C@@H](O)[C@@H]1O`, the IC50 is reported as > 80 µM. In the case of `C/C=C1/[C@H](O[C@@H]2O[C@H](CO)[C@@H](O)[C@H](O)[C@H]2O)OC=C(C(=O)OC)[C@H]1CC(=O)OC[C@H]1O[C@@H](Oc2ccc(O)cc2)[C@H](O)[C@@H](O)[C@@H]1O`, the IC50 is reported as 58.3 µM. In the case of `C/C=C1/[C@H](O[C@@H]2O[C@H](CO)[C@@H](O)[C@H](O)[C@H]2O)OC=C(C(=O)OC)[C@H]1CC(=O)O[C@@H]1[C@@H](O)[C@H](O[C@@H]2OC=C(C(=O)OC)[C@@H](CC(=O)OC[C@H]3O[C@@H](OCCc4ccc(O)cc4)[C@H](O)[C@@H](O)[C@@H]3O)/C2=C\C)O[C@H](CO)[C@H]1O`, the IC50 is reported as > 80 µM. With `C/C=C1/[C@H](O[C@@H]2O[C@H](CO)[C@@H](O)[C@H](O)[C@H]2O)OC=C(C(=O)OC)[C@H]1CC(=O)OC[C@H]1O[C@@H](Oc2ccc(/C=C/CO)cc2OC)[C@H](O)[C@@H](O)[C@@H]1O` the IC50 was > 80 µM. With `C/C=C1/[C@H](O[C@@H]2O[C@H](CO)[C@@H](O)[C@H](O)[C@H]2O)OC=C(C(=O)OC)[C@H]1CC(=O)OCCc1ccc(O)c(O)c1` [OLEUROPEIN] the IC50 was > 80 µM.

From ChEMBL document CHEMBL4665816, “Syringoleosides A-H, Secoiridoids from Syringa dilatata Flowers and Their Inhibition of NO Production in LPS-Induced RAW 264.7 Cells” (J Nat Prod, 2020)
